According to ChEMBL document CHEMBL1151183, “New pigments from the terrestrial cyanobacterium Scytonema sp. collected on the Mitaraka inselberg, French Guyana” (J Nat Prod, 2004):
Active and inactive are the calls of the source.

What was measured:
Escherichia coli = assay: Antimicrobial activity against Escherichia coli ATCC 8739 at 1 uM; type: functional, organism-based
KB = assay: Cytotoxicity against human KB cells at 0.1 uM; type: functional, cell-based
Candida tropicalis = assay: Antimicrobial activity against Candida tropicalis IP 209.73 at 1 uM; type: functional, organism-based
Staphylococcus aureus = assay: Antimicrobial activity against Staphylococcus aureus ATCC 6538 at 1 uM; type: functional, organism-based

Measured: Activity

COC(c1ccc(O)cc1)C1(OC)C(=O)/C(=C2/C(=O)/C(=C/c3ccc(O)cc3)c3[nH]c4ccccc4c32)c2c1[nH]c1ccccc21 (configuration not stated)
inactive: Escherichia coli | KB Not toxic | Candida tropicalis | Staphylococcus aureus

COC(c1ccc(O)cc1)C1(OC)C(=O)/C(=C2/C(=O)C(OC)(C(OC)c3ccc(O)cc3)c3[nH]c4ccccc4c32)c2c1[nH]c1ccccc21 (configuration not stated)
inactive: Escherichia coli | KB Not toxic | Candida tropicalis | Staphylococcus aureus

COC(=O)C1=C(c2c(/C(=C\c3ccc(O)cc3)C(=O)OC)[nH]c3ccccc23)C(=O)c2[nH]c3ccccc3c21
inactive: Escherichia coli | KB Not toxic | Candida tropicalis | Staphylococcus aureus
